The results in this text go back to patent publication US6544533B2, “10-hydroxy-2-decenoic acid compounds for promoting desquamation/epidermal renewal of the skin and/or combating skin aging” (Societe L'Oreal S.A., priority 1998, dated 2003).

The subject of this experiment is differentiated human keratinocytes. In words: in vitro screening of desquamating activity: release of corneocytes (cellular detachment index) counted by flow cytometry. The experiment is classed as cell-based. The settings on record: compounds at 5·10^−5 M, 60 minutes after addition. On the procedure:
This test of in vitro screening of an agent which is active with regard to desquamation was carried out on differentiated human keratinocytes. The principle of the test is based on the fact that desquamation induces the release of corneocytes. The desquamating power of the test product increases as the number of corneocytes released increases.
The protocol of the test was as follows: beginning with biopsies of human skin, the keratinocytes obtained by separation from the epidermis were dissociated by enzymatic action with trypsin and were cultured at a concentration of 2·10^5 cell/ml. The growth and differentiation of the keratinocytes was obtained by culturing for 10 to 20 days in a specific medium. The activity of the test product was then evaluated after removal of the culture medium. To accomplish this, two samples were taken at T0 and T60, namely, before the addition of the test product and 60 minutes after this addition. The samples thus taken were analyzed with a flow cytometer in order to count the population of corneocytes. The flow cytometer made it possible to distinguish the populations of corneocytes and of keratinocytes by treatment with acridine orange, which is specific for cellular DNA.
The cellular detachment index was determined by the difference between T60 and T0. The same measurement was carried out for a control not comprising test product, because the experiment inevitably produces the release of corneocytes, even in the absence of active principles.
The test was carried out with compounds at a concentration of 5·10^−5M.
Background: Flow cytometry measures light scatter and fluorescence of single cells or particles in a stream.
Turning to `CCCCCCCC(=O)c1ccc(O)c(C(=O)O)c1` [Reference, 2-Hydroxy-5-octanoylbenzoic acid, reference compound], the “% of activity with respect to the control composed of an identical culture in the absence of compound (cellular detachment index, T60 minus T0)” value stood at 91.95%.

For `O=C(/C=C/CCCCCCCO)OCC(COC(=O)/C=C/CCCCCCCO)OC(=O)/C=C/CCCCCCCO` [Propyl 1,2,3-tri(10-hydroxydec-2-enoate), propyl 1,2,3-tri(10-hydroxydec-2-enoate)], the “% of activity with respect to the control composed of an identical culture in the absence of compound (cellular detachment index, T60 minus T0)” value stood at 148.52%.

Consider `COCCOCOCC(COC(=O)/C=C/CCCCCCCO)OC(=O)/C=C/CCCCCCCO` (stereo not drawn) [3-[(2-methoxyethoxy)methoxy]propyl 1,2-di(10-hydroxydec-2-enoate)], for which the “% of activity with respect to the control composed of an identical culture in the absence of compound (cellular detachment index, T60 minus T0)” value was 124.16%.
